Source: ChEMBL document CHEMBL1150926, “A new meroditerpenoid dimer from an undescribed Philippine marine sponge of the genus Strongylophora” (J Nat Prod, 1998)
Converted amounts (≈) assume the structure as drawn. The source made the active and inactive calls. The calls are words filed in the database; no cut-off is given here.

Assays:
Salmonella typhi = assay: Antibacterial activity against Salmonella typhii at 100 ug/disk after 24 hrs by agar plate diffusion method; type: functional, Salmonella enterica subsp. enterica serovar Typhi
Escherichia coli = assay: Antibacterial activity against Escherichia coli ATCC 25922 at 100 ug/disk after 24 hrs by agar plate diffusion method; type: functional, organism-based
Staphylococcus aureus = assay: Antibacterial activity against Staphylococcus aureus ATCC 25923 at 100 ug/disk after 24 hrs by agar plate diffusion method; type: functional, organism-based
Bacillus subtilis = assay: Antibacterial activity against Bacillus subtilis 168 at 100 ug/disk after 24 hrs by agar plate diffusion method; type: functional, organism-based; settings: subsp. subtilis str. 168
[1] = Toxicity against Artemia salina assessed as mortality after 48 hrs; type: organism-based; settings: in vivo
Spodoptera littoralis [2] = assay: Insecticidal activity against Spodoptera littoralis larvae assessed as inhibition of larval growth at 530 ppm treated in artificial diet after 6 days; type: functional; design: scale not given: the % may be the effect or the level left
Cladosporium cucumerinum [3] = assay: Antifungal activity against Cladosporium cucumerinum at 0.10 umol after 2 days; type: functional
Spodoptera littoralis [4] = assay: Insecticidal activity against Spodoptera littoralis larvae assessed as inhibition of larval growth treated in artificial diet after 6 days; type: functional, organism-based
Cladosporium cucumerinum [5] = assay: Antifungal activity against Cladosporium cucumerinum at 0.80 umol after 2 days; type: functional
Micrococcus luteus = assay: Antibacterial activity against Micrococcus luteus at 100 ug/disk after 24 hrs by agar plate diffusion method; type: functional

SMILES | zone of inhibition at 100 µg/disc (Salmonella typhi; Salmonella enterica, read-out: IZ) | Activity (Escherichia coli) | Activity (Staphylococcus aureus) | Activity (Bacillus subtilis) | LC50 at 48 h [1] | Activity (Spodoptera littoralis [2]) | inhibition zone (IZ) (Cladosporium cucumerinum [3]) | EC50 (Spodoptera littoralis [4]) | inhibition zone (IZ) (Cladosporium cucumerinum [5]) | Activity (Micrococcus luteus) | Activity (Salmonella typhi; Salmonella enterica subsp. enterica serovar Typhi) | Activity (Cladosporium cucumerinum [3]) | Activity (Cladosporium cucumerinum [5]) | zone of inhibition at 100 µg/disc (Micrococcus luteus; read-out: IZ)
C[C@]12CCC[C@](C)(C(=O)O)[C@@H]1CC[C@]1(C)[C@@H]2CC[C@]2(C)Oc3ccc(O)cc3C[C@@H]12 [Strongylophorin-3] | 9 mm | inactive | inactive | inactive | 59.2 µg/mL (≈ 143 µM) | 90% | 10 mm | 69 ppm | 15 mm | inactive |  |  |  | 
C[C@@]12CC[C@@H]3[C@]4(CCC[C@@]3(C)C(=O)OC4)[C@H]1CC[C@]1(C)Oc3ccc(O)cc3C[C@@H]21 [strongylophorine-2] |  | inactive | inactive | inactive | 534 µg/mL (≈ 1300 µM) |  |  |  |  |  | inactive | inactive | inactive | 7 mm
C[C@]12CC[C@H]3[C@@](C)(CCC[C@@]3(C)C(=O)O)[C@@H]1CC[C@@]1(C)Oc3c(O)ccc(Oc4ccc5c(c4)C[C@H]4[C@]6(C)CC[C@@H]7[C@](C)(CCC[C@]7(C)C(=O)O)[C@H]6CC[C@]4(C)O5)c3C[C@H]21 [DISTRONGYLOPHORINE] |  |  |  |  | 10.5 µg/mL (≈ 12.8 µM) |  |  |  |  |  |  | inactive | inactive | 
CC(=O)[C@@]1(C)CCC[C@]2(C)[C@H]3CC[C@]4(C)Oc5ccc(O)cc5C[C@H]4[C@]3(C)CC[C@H]21 [strongylophorine-4] |  |  |  |  | 143 µg/mL (≈ 349 µM) |  |  |  |  |  |  | inactive | inactive | 
